We go through two compounds from patent US11499185B2, “Nucleic acid sequencing methods and systems” (OMNIOME, INC., priority 2015, dated 2022).

This experiment deals with T1, HIV reverse transcriptase (Human immunodeficiency virus type 1 group M subtype B, UniProt P04585).
T1 construct: Recombinant purified HIV reverse transcriptase (HIV RT); purchased Worthington Biochemical Corp (Lakewood, N.J.)
Briefly: Binding of HIV RT to biosensor coated with primer-template (Octet QK), with dNTP and NNRTI. Details: species or system HIV-1. On the procedure:
Template oligonucleotide Btn-4460-45095 and primer oligonucleotide 4496-4509AS were synthesized and analyzed (liquid chromatography-mass spectrometry (LC-MS) and electrospray ionization (ESI)) by Integrated DNA Technologies (Coralville, Iowa). Oligonucleotides were prepared in TE Buffer (10 mM Tris pH 8.0, 0.1 mM EDTA) to 100 μM. Primer and template oligonucleotides were combined (10 μM each strand) in a tube containing Annealing Buffer (10 mM Tris pH 8.0, 0.1 mM EDTA, 80 mM KCl). The tube containing primer-template solution was loaded onto a dry heat block (95° C. for 5 min), and the block was transferred to the bench top to anneal the strands by gradual cooling to ambient temperature. Uncompetitive NNRTI compounds (Pitta et al., J. Enzyme Inhib. Med. Chem. 28(10):113-22 (2013)), which is incorporated by reference herein in its entirety), were from Epigen Biosciences, Inc. (San Diego, Calif.). NNRTI compounds 7 (3-4-chloro-benzo[d]thiazol-2yl)-2-(2-chloro-6-fluorophenyl)thiazolidin-4-one) and 18 (3-(6-ethoxy-benzo[d]thiazol-2-yl)-2-(2-chloro-6-fluorophenyl)thiazolidin-4-one) were dissolved in dimethylsulfoxide (DMSO) to concentrations of 25.0 mM and 15.0 mM, respectively. Recombinant purified HIV reverse transcriptase (HIV RT) was from Worthington Biochemical Corp (Lakewood, N.J.). Ultra-pure bovine serum albumin (BSA) was from Ambion (Foster City, Calif.). All reagents and solutions were molecular biology grade.
Primer-template duplex was diluted ([…]) into Annealing Buffer. Immediately before use, HIV Reverse Transcriptase was pre-diluted into Enzyme Diluent (50 mM Tris, pH 8.0, 8 mM MgCl2). Binding buffer (50 mM Tris, pH 8.0, 160 mM KCl, 0.5 mM EDTA, 11 mM MgCl2, 0.3% (v/v) Triton X-100, 5.3 mM dithiothreitol (DTT), 100 μg/mL bovine serum albumin (BSA), 100 μM dNTP (dATP, dTTP, dGTP or dCTP), 100 nM HIV RT). NNRTI compounds were pre-diluted with DMSO immediately before being spiked into Binding Buffer. Reaction Buffer was Binding Buffer without NNRTI, dNTP or HIV RT enzyme. Buffer containing Primer-Template (PT), PT Wash Buffer, Binding buffer containing one dNTP, and Reaction Buffer were loaded (200 μL/well) into a Greiner 96-well black microplate (Sigma-Aldrich, St. Louis, Mo.; catalog number M9685). Streptavidin (SA) Biosensors (Pall ForteBio Corp., Menlo Park, Calif.; catalog number 18-5019) were re-hydrated in Annealing Buffer for approximately 10 minutes before use. The Octet QK biosensor system (Pall ForteBio Corp., Menlo Park, Calif.) was set for 30° C. operation and was programmed to coat the biosensors with Primer-Template and wash away unbound Primer-Template with PT Wash Buffer. Biosensors were transferred to Binding Buffer containing HIV RT+dCTP±NNRTI (association phase) followed by Reaction Buffer (dCTP incorporation and dissociation phase). Similarly, biosensors were transferred cyclically to solutions containing individual deoxyribonucleoside triphosphates (dATP, dGTP, dCTP or dTTP) as indicated. Cycles of binding and incorporation were repeated multiple times.
Data were imported into Microsoft Excel and Prism software (GraphPad Software, San Diego, Calif.) for display. The progress of binding and dissociation reactions was smoothed either by averaging within a 19.4-second window or by Prism software (19.4-second window and 6th-order smoothing polynomial).

Consider `O=C1CSC(c2c(F)cccc2Cl)N1c1nc2c(Cl)cccc2s1` (stereo not drawn) [NNRTI compound 7], for which the “binding to biosensor coated with primer-template in the association phase” value (from here on “binding to biosensor coated”) reads like this: (HIV RT + incorrect nucleotides dCTP and dATP (cycles 7 and 8) + NNRTI 40 μM, FIG. 7A) “did not produce a binding peak”; (HIV reverse transcriptase + correct dNTP + NNRTI 40 μM, ALK primer-template, FIG. 7A) “distinct peaks for binding”; (control: HIV RT with 40 μM NNRTI, no dNTP, FIG. 7A) “did not produce appreciable binding peaks”.

For the compound `CCOc1ccc2nc(N3C(=O)CSC3c3c(F)cccc3Cl)sc2c1` (stereo not drawn) [NNRTI compound 18, 3-(6-ethoxy-benzo[d]thiazol-2-yl)-2-(2-chloro-6-fluorophenyl)thiazolidin-4-one], the “binding to biosensor coated” value (HIV RT + incorrect nucleotide dTTP (cycle 4) + NNRTI 80 μM, FIG. 8) is given as “did not show a binding peak”; the “binding to biosensor coated” value (HIV reverse transcriptase + correct dNTP + NNRTI 80 μM, ALK primer-template, FIG. 8) was “distinct peaks for binding”; the “binding to biosensor coated” value (control: HIV RT with 80 μM NNRTI, no dNTP, FIG. 8) was “did not produce appreciable binding peaks”.
